Experimental data taken from US20230123334A1, “AMINO LIPID COMPOUND, PREPARATION METHOD THEREFOR, AND APPLICATION THEREOF” (SHENZHEN SHENXIN BIOTECHNOLOGY CO., LTD., priority 2020, published 2023).

Tests used:
Format in all cases: cell-based
[1] = test system: Hela cells; assay: Transfection of Hela cell line, mRNA vectors; conditions: 50 ng EGFP mRNA per well
Protocol: (§1) Cell line: Hela cells (ATCC 35241)
(§2) Medium: DMEM supplemented with 10% fetal bovine serum (Invitrogen)
(§3) Screening: cell transfection on 96-well plates
Detection (readout): percentage of the number of GFP fluorescent cells relative to the total number of cells (the total number of cells was determined using nucleus dye Hoechst). A commercially available liposome transfection reagent Lipofectamine2000 (Invitrogen) was used as the positive control group, according to the manufacturer's instructions.
Method: the experimental method was basically the same with Example 4, and the mass of EGFP mRNA for transfection was 50 ng per well.

[2] = test system: Hela cells; assay: Transfection of Hela cell line, DNA vectors; conditions: 75 ng plasmid DNA, GFP cells / total cells
Protocol: 1. The compound (0.01 mmol) prepared in Example 1 was dissolved in 1 mL of anhydrous ethanol. After ultrasonically dissolved, 10 μL of the resultant amino lipid solution in ethanol was taken and mixed with 5 μL of DOPE solution in ethanol (0.01 m), and then to the obtained mixture was added 35 μL of 0.2M sodium acetate buffer (pH 5.6), and 50 μL of liposome solution was prepared by vortex at a constant rotating speed for 30 s. 4 μL was taken from the 50 μL liposome solution and added to 46 μL of 0.02M sodium acetate buffer (pH 5.6), and the final liposome solution was formed by vortex at a constant rotating speed for 30 s. 5 μL was taken from the final liposome solution and mixed with 75 ng plasmid DNA (psin-EGFP-IRES-Puro, Clontech) dissolved in 5 μL of 0.02 M sodium acetate buffer, and was allowed to stay at room temperature for 30 min to form a lipid/DNA transfection complex.
2. 10 μL of the lipid/DNA transfection complex was incubated at room temperature for 30 min, followed by addition of 90 μL of fresh resuspended cells (3-5×10^4 cells) and mixing with a pipette. 100 μL of cells+lipid/DNA complex was transferred to separate wells of a 96-well culture plate immediately, and placed in an incubator containing 5% CO2 at 37° C.
3. Hoechst33258 (Invitrogen) was added at a final concentration of 0.2 μg/mL to the cells 20 to 24 hours after initial cell transfection, and cultured in darkness at 37° C. for 15 min. Afterwards, the cells were washed once with a PBS solution, and then added with medium for culture for 20 to 24 h.
4. The cells were placed in a high-throughput confocal microscope (Molecular Devices ImageXpress), and four visual fields of the image of the cells were captured for each well, and images at three laser wavelengths were captured for each sample: bright field images of cells (FIG. 2(a) and FIG. 2(b)), Hoechst-staining images showing total nuclei (FIG. 2(c) and FIG. 2(d)) and GFP images showing success in transfection with the plasmid DNA and the expression of GFP (FIG. 2(e) and FIG. 2(f)). MetaXpress software was used to separately count the cells in the Hoechst-staining images and GFP images, and then the number of cells expressing GFP was divided by the total number of nuclei to give the absolute cell transfection efficiency. The absolute transfection efficiency was calculated as follows: […]
as §1, §2, §3
Detection (readout): percentage of the number of GFP fluorescent cells relative to the total number of cells (the total number of cells was determined using nucleus dye Hoechst). Lipofectamine2000 (Invitrogen) was used as the positive control, according to the manufacturer's instructions.
(§4) Method: the experimental method was basically the same with Example 4.

[3] = test system: MCF7 cells; assay: Transfection of MCF7 cell line, mRNA vectors; conditions: 50 ng EGFP mRNA per well
Protocol: (§5) Cell line: MCF7 cells (ATCC HTB-22)
Medium: DMEM supplemented with 10 fetal bovine serum (Invitrogen)
as §3
Detection (readout): percentage of the number of GFP fluorescent cells relative to the total number of cells (the total number of cells was determined using nucleus dye Hoechst). Lipofectamine2000 (Invitrogen) was used as the positive control.
Method: the experimental method was basically the same with Example 4, and the mass of EGFP mRNA (TriLink) for transfection was 50 ng per well.

[4] = test system: MCF7 cells; assay: Transfection of MCF7 cell line, DNA vectors; set-up: concentration or dose not given beside the values; conditions: plasmid DNA, GFP cells / total cells
Protocol: as §5
Medium DMEM supplemented with […] fetal bovine serum
as §3
Detection (readout): percentage of the number of GFP fluorescent cells relative to the total number of cells (the total number of cells was determined using nucleus dye Hoechst). Lipofectamine2000 was used as the positive control, according to the manufacturer's instructions.
as §4

[5] = test system: HEK293 cells; assay: Preliminary screening as mRNA vectors, EGFP mRNA transfection of HEK293 cells; conditions: HEK293 cells, 96-well plates, EGFP mRNA 50 ng per well; percentage of GFP fluorescent cells relative to total number of cells (Hoechst)
Method in brief: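 Each well of HEK293 cells received 50 ng of EGFP mRNA. Efficiency was expressed as percent GFP-expressing cells over Hoechst-defined total cell number.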

[6] = test system: HEK293 cells; assay: Preliminary screening as DNA vectors, GFP transfection of HEK293 cells; conditions: HEK293 cells; lipid/DOPE liposome with 75 ng plasmid DNA (psin-EGFP-IRES-Puro); number of cells expressing GFP divided by total number of nuclei (Hoechst)
Method in brief: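 Lipid + DOPE liposomes (NaOAc, pH 5.6) complexed w/ 75 ng psin-EGFP-IRES-Puro, 30 min RT; added to 3-5×10^4 HEK293/well, 37° C. Hoechst 0.2 μg/mL at 20-24 h, imaged after further 20-24 h. Efficiency = GFP+ cells / total nuclei.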

CCCCCCCCCCCSc1nc(NCCN2CCCC2)nc(SCCCCCCC)n1 [Compound S7S11D3]
Absolute mRNA transfection efficiency in Hela cells [1]: 4.8% | Absolute DNA transfection efficiency in Hela cells [2]: 4.8% | Absolute mRNA transfection efficiency in MCF7 cells [3]: 6.7% | Absolute DNA transfection efficiency in MCF7 cells [4]: 6.4%

CCCCCCCCCCCSc1nc(NCCN2CCN(C)CC2)nc(SCCCCCCC)n1 [Compound S7S11D5]
Absolute mRNA transfection efficiency in Hela cells [1]: 16.8% | Absolute DNA transfection efficiency in Hela cells [2]: 16.8% | Absolute mRNA transfection efficiency in MCF7 cells [3]: 16.5% | Absolute DNA transfection efficiency in MCF7 cells [4]: 23.3%

CCCCCCCCCCCSc1nc(NCCCN(C)C)nc(SCCCCCCC)n1 [Compound S7S11D6]
Absolute mRNA transfection efficiency in Hela cells [1]: 14.5% | Absolute DNA transfection efficiency in Hela cells [2]: 14.5% | Absolute mRNA transfection efficiency in MCF7 cells [3]: 26.1% | Absolute DNA transfection efficiency in MCF7 cells [4]: 38.1%

CCCCCCCCCCCSc1nc(NCCCN2CCOCC2)nc(SCCCCCCC)n1 [Compound S7S11D8]
Absolute mRNA transfection efficiency in Hela cells [1]: 5.6% | Absolute DNA transfection efficiency in Hela cells [2]: 5.6% | Absolute mRNA transfection efficiency in MCF7 cells [3]: 1.5% | Absolute DNA transfection efficiency in MCF7 cells [4]: 12.9%

CCCCCCCCCCCSc1nc(NCCCN2CCN(C)CC2)nc(SCCCCCCC)n1 [Compound S7S11D9]
Absolute mRNA transfection efficiency in Hela cells [1]: 12.9% | Absolute DNA transfection efficiency in Hela cells [2]: 12.9% | Absolute mRNA transfection efficiency in MCF7 cells [3]: 3.6% | Absolute DNA transfection efficiency in MCF7 cells [4]: 44.5%

CCCCCCCCCCCSc1nc(NCC2CCN(C)CC2)nc(SCCCCCCC)n1 [Compound S7S11D10]
Absolute mRNA transfection efficiency in Hela cells [1]: 19.7% | Absolute DNA transfection efficiency in Hela cells [2]: 19.7% | Absolute mRNA transfection efficiency in MCF7 cells [3]: 22.2% | Absolute DNA transfection efficiency in MCF7 cells [4]: 33.8%

CCCCCCCCCCCCSc1nc(NCCN2CCCC2)nc(SCCCCCCC)n1 [Compound S7S12D3]
Absolute mRNA transfection efficiency in Hela cells [1]: 4.9% | Absolute DNA transfection efficiency in Hela cells [2]: 4.9% | Absolute mRNA transfection efficiency in MCF7 cells [3]: 9.4% | Absolute DNA transfection efficiency in MCF7 cells [4]: 3.0%

CCCCCCCCCCCCSc1nc(NCCN2CCN(C)CC2)nc(SCCCCCCC)n1 [Compound S7S12D5]
Absolute mRNA transfection efficiency in Hela cells [1]: 4.9% | Absolute DNA transfection efficiency in Hela cells [2]: 4.9% | Absolute mRNA transfection efficiency in MCF7 cells [3]: 33.6% | Absolute DNA transfection efficiency in MCF7 cells [4]: 27.1%

CCCCCCCCCCCCSc1nc(NCCCN(C)C)nc(SCCCCCCC)n1 [Compound S7S12D6]
Absolute mRNA transfection efficiency in Hela cells [1]: 5.8% | Absolute DNA transfection efficiency in Hela cells [2]: 5.8% | Absolute mRNA transfection efficiency in MCF7 cells [3]: 19.1% | Absolute DNA transfection efficiency in MCF7 cells [4]: 52.1%

CCCCCCCCCCCCSc1nc(NCCCN2CCOCC2)nc(SCCCCCCC)n1 [Compound S7S12D8]
Absolute mRNA transfection efficiency in Hela cells [1]: 5.4% | Absolute DNA transfection efficiency in Hela cells [2]: 5.4% | Absolute mRNA transfection efficiency in MCF7 cells [3]: 24.0% | Absolute DNA transfection efficiency in MCF7 cells [4]: 11.5%

CCCCCCCCCCCCSc1nc(NCCCN2CCN(C)CC2)nc(SCCCCCCC)n1 [Compound S7S12D9]
Absolute mRNA transfection efficiency in Hela cells [1]: 2.9% | Absolute DNA transfection efficiency in Hela cells [2]: 2.9% | Absolute mRNA transfection efficiency in MCF7 cells [3]: 21.2% | Absolute DNA transfection efficiency in MCF7 cells [4]: 14.6%

CCCCCCCCCCCCSc1nc(NCC2CCN(C)CC2)nc(SCCCCCCC)n1 [Compound S7S12D10]
Absolute mRNA transfection efficiency in Hela cells [1]: 10.6% | Absolute DNA transfection efficiency in Hela cells [2]: 10.6% | Absolute mRNA transfection efficiency in MCF7 cells [3]: 47.5% | Absolute DNA transfection efficiency in MCF7 cells [4]: 44.7%

CCCCCCCCCCCCNc1nc(NCCN2CCCC2)nc(SCCCCCCCC)n1 [Compound S8N12D3]
Absolute mRNA transfection efficiency in Hela cells [1]: 8.9% | Absolute DNA transfection efficiency in Hela cells [2]: 8.8% | Absolute mRNA transfection efficiency in MCF7 cells [3]: 20.7% | Absolute DNA transfection efficiency in MCF7 cells [4]: 13.7%

CCCCCCCCCCCCNc1nc(NCCN2CCN(C)CC2)nc(SCCCCCCCC)n1 [Compound S8N12D5]
Absolute mRNA transfection efficiency in Hela cells [1]: 20.8% | Absolute DNA transfection efficiency in Hela cells [2]: 20.8% | Absolute mRNA transfection efficiency in MCF7 cells [3]: 19.7% | Absolute DNA transfection efficiency in MCF7 cells [4]: 29.2%

CCCCCCCCCCCCNc1nc(NCCCN(C)C)nc(SCCCCCCCC)n1 [Compound S8N12D6]
Absolute mRNA transfection efficiency in Hela cells [1]: 39.3% | Absolute DNA transfection efficiency in Hela cells [2]: 39.3% | Absolute mRNA transfection efficiency in MCF7 cells [3]: 22.5% | Absolute DNA transfection efficiency in MCF7 cells [4]: 25.5%

CCCCCCCCCCCCCCCSc1nc(NCCN(C)C)nc(SCCCCCCCCC)n1 [Compound S9S15D1]
Absolute mRNA transfection efficiency in HEK293 cells [5]: 0.0% | Absolute mRNA transfection efficiency in Hela cells [1]: 1.3% | Absolute DNA transfection efficiency in Hela cells [2]: 1.3% | Absolute DNA transfection efficiency in HEK293 cells [6]: 2.1%

CCCCCCCCCCCCCCCSc1nc(NCCN2CCOCC2)nc(SCCCCCCCCC)n1 [Compound S9S15D2]
Absolute mRNA transfection efficiency in HEK293 cells [5]: 0.0% | Absolute mRNA transfection efficiency in Hela cells [1]: 5.9% | Absolute DNA transfection efficiency in Hela cells [2]: 5.9% | Absolute DNA transfection efficiency in HEK293 cells [6]: 10.6%

CCCCCCCCCCCCCCCSc1nc(NCCN2CCCCC2)nc(SCCCCCCCCC)n1 [Compound S9S15D4]
Absolute mRNA transfection efficiency in HEK293 cells [5]: 2.1% | Absolute mRNA transfection efficiency in Hela cells [1]: 5.8% | Absolute DNA transfection efficiency in Hela cells [2]: 5.8% | Absolute DNA transfection efficiency in HEK293 cells [6]: 11.8%

CCCCCCCCCCCCCCCSc1nc(NCCN(CC)CC)nc(SCCCCCCCCC)n1 [Compound S9S15D7]
Absolute mRNA transfection efficiency in HEK293 cells [5]: 1.2% | Absolute mRNA transfection efficiency in Hela cells [1]: 2.8% | Absolute DNA transfection efficiency in Hela cells [2]: 2.8% | Absolute DNA transfection efficiency in HEK293 cells [6]: 5.0%

CCCCCCCCCCCCCCCCSc1nc(NCCN(C)C)nc(SCCCCCCCCC)n1 [Compound S9S16D1]
Absolute mRNA transfection efficiency in HEK293 cells [5]: 0.0% | Absolute mRNA transfection efficiency in Hela cells [1]: 0.0% | Absolute DNA transfection efficiency in Hela cells [2]: 0.0% | Absolute DNA transfection efficiency in HEK293 cells [6]: 0.0%

CCCCCCCCCCCCCCCCSc1nc(NCCN2CCOCC2)nc(SCCCCCCCCC)n1 [Compound S9S16D2]
Absolute mRNA transfection efficiency in HEK293 cells [5]: 0.0% | Absolute mRNA transfection efficiency in Hela cells [1]: 0.7% | Absolute DNA transfection efficiency in Hela cells [2]: 0.7% | Absolute DNA transfection efficiency in HEK293 cells [6]: 1.5%

CCCCCCCCCCCCCCCCSc1nc(NCCN2CCCCC2)nc(SCCCCCCCCC)n1 [Compound S9S16D4]
Absolute mRNA transfection efficiency in HEK293 cells [5]: 1.2% | Absolute mRNA transfection efficiency in Hela cells [1]: 6.2% | Absolute DNA transfection efficiency in Hela cells [2]: 6.2% | Absolute DNA transfection efficiency in HEK293 cells [6]: 12.2%

CCCCCCCCCCCCCCCCSc1nc(NCCN(CC)CC)nc(SCCCCCCCCC)n1 [Compound S9S16D7]
Absolute mRNA transfection efficiency in HEK293 cells [5]: 1.8% | Absolute mRNA transfection efficiency in Hela cells [1]: 4.2% | Absolute DNA transfection efficiency in Hela cells [2]: 4.2% | Absolute DNA transfection efficiency in HEK293 cells [6]: 8.4%
